First: O=C(Nc1nc(-c2ccco2)c(C(=O)c2ccccn2)s1)c1ccn(Cc2ccccc2)c(=O)c1 [Compound 232, 1-Benzyl-N-[4-(2-furyl)-5-(pyridin-2-ylcarbonyl)thiazol-2-yl]-2-oxo-1,2-dihydropyridine-4-carboxamide]
Second: O=C(Nc1nc(-c2ccco2)c(C(=O)c2ccccn2)s1)c1ccccc1 [Compound 199, N-[4-(2-Furyl)-5-(pyridin-2-ylcarbonyl)thiazol-2-yl]benzamide]
The melting point of the first is higher: 269 to 270 °C for the first, 165 to 171 °C for the second.

Compared with `O=C(Nc1nc(-c2ccco2)c(C(=O)c2ccco2)s1)c1ccncc1` [Compound 342, N-[4-(2-Furyl)-5-(furan-2-ylcarbonyl)thiazol-2-yl]pyridine-4-carboxamide], `Cn1cc(C(=O)c2sc(NC(=O)c3ccncc3)nc2-c2ccco2)ccc1=O` [Compound 360, N-[4-(2-Furyl)-5-(1-methyl-2-oxo-1,2-dihydropyridin-5-ylcarbonyl)thiazol-2-yl]pyridine-4-carboxamide] is higher in melting point: 245 to 248 °C for the first, 294 to 295 °C for the second.

First: O=C(c1ccccn1)c1sc(NC(=O)N2CCOCC2)nc1-c1ccco1 [Compound 256, N-[4-(2-Furyl)-5-(pyridin-2-ylcarbonyl)thiazol-2-yl]morpholine-4-carboxamide]
Second: O=C(CCl)Nc1nc(-c2ccco2)c(C(=O)c2ccccn2)s1 [Compound 262, 2-Chloro-N-[4-(2-furyl)-5-(pyridin-2-ylcarbonyl)thiazol-2-yl]acetamide]
The melting point of the first is lower: 144 to 145 °C for the first, 184 to 185 °C for the second.

Compared with `O=C(Nc1nc(-c2ccccn2)c(C(=O)c2ccccn2)s1)c1ccncc1` [Compound 631, N-[4-(2-Pyridyl)-5-(pyridin-2-ylcarbonyl)thiazol-2-yl]pyridine-4-carboxamide], `O=C(Nc1nc(-c2ccoc2)c(C(=O)c2ccccn2)s1)c1ccncc1` [Compound 608, N-[4-(3-Furyl)-5-(pyridin-2-ylcarbonyl)thiazol-2-yl]pyridine-4-carboxamide] is higher in melting point: 232 to 234 °C for the first, 264 to 266 °C for the second.

First: CCn1nc(-c2sc(NC(=O)c3ccncc3)nc2-c2ccco2)ccc1=O [Compound 130, N-[5-(1-Ethyl-6-oxo-1,6-dihydropyridazin-3-yl)-4-(2-furyl)thiazol-2-yl]pyridine-4-carboxamide]
Second: O=C(Nc1nc(-c2ccoc2)c(-c2ccncc2)s1)c1ccncc1 [Compound 605, N-[4-(3-Furyl)-5-(4-pyridyl)thiazol-2-yl]pyridine-4-carboxamide]
The melting point of the first is lower: 235 to 239 °C for the first, 251 to 254 °C for the second.

First: O=C(Nc1nc(-c2ccco2)c(C(=O)c2ccccn2)s1)c1ccc2c(c1)OCCO2 [Compound 210, N-[4-(2-Furyl)-5-(pyridin-2-ylcarbonyl)thiazol-2-yl]-1,4-benzodioxane-6-carboxamide]
Second: O=C(Nc1nc(-c2ccco2)c(C(=O)c2ccccn2)s1)c1ccc2c(c1)OCO2 [Compound 209, N-[4-(2-Furyl)-5-(pyridin-2-ylcarbonyl)thiazol-2-yl]-3,4-methylenedioxybenzamide]
The melting point of the first is lower: 189 to 191 °C for the first, 235 to 236 °C for the second.

First: COCC#CC(=O)c1sc(NC(=O)c2ccncc2)nc1-c1ccco1 [Compound 413, N-[4-(2-Furyl)-5-(3-methoxypropa-1-ynylcarbonyl)thiazol-2-yl]pyridine-4-carboxamide]
Second: O=C(Nc1nc(-c2ccco2)c(C(=O)C(F)(F)F)s1)c1ccncc1 [Compound 380, N-[4-(2-Furyl)-5-(trifluoroacetyl)thiazol-2-yl]pyridine-4-carboxamide]
The melting point of the first is lower: 198 to 200 °C for the first, 268 to 270 °C for the second.

Compared with `O=C(CN1CCN(C2CCOCC2)CC1)Nc1nc(-c2ccco2)c(C(=O)c2ccccn2)s1` [Compound 279, N-[4-(2-Furyl)-5-(pyridin-2-ylcarbonyl)thiazol-2-yl]-2-[4-(tetrahydropyran-4-yl)piperazin-1-yl]acetamide], `O=C(CN1CCN(c2ccccn2)CC1)Nc1nc(-c2ccco2)c(C(=O)c2ccccn2)s1` [Compound 277, N-[4-(2-Furyl)-5-(pyridin-2-ylcarbonyl)thiazol-2-yl]-2-[4-(2-pyridyl)piperazin-1-yl]acetamide] is higher in melting point: 172 to 188 °C for the first, 215 to 218 °C for the second.

First: COC1(CN2CCN(CC(=O)Nc3nc(-c4ccco4)c(C(=O)C4CCOCC4)s3)CC2)CC1 [Compound 567, N-[4-(2-Furyl)-5-(tetrahydropyran-4-ylcarbonyl)thiazol-2-yl]-2-{4-[(1-methoxycyclopropyl)methyl]piperazin-1-yl}acetamide]
Second: CC(C)(O)CN1CCN(CC(=O)Nc2nc(-c3ccco3)c(C(=O)C3CCOCC3)s2)CC1 [Compound 565, N-[4-(2-Furyl)-5-(tetrahydropyran-4-ylcarbonyl)thiazol-2-yl]-2-[4-(2-hydroxy-2-methylpropyl)piperazin-1-yl]acetamide]
The melting point of the first is higher: 155 to 157 °C for the first, 106 to 108 °C for the second.

First: O=C(Nc1nc(-c2ccco2)c(C(=O)c2ccccn2)s1)c1cccs1 [Compound 241, N-[4-(2-Furyl)-5-(pyridin-2-ylcarbonyl)thiazol-2-yl]thiophene-2-carboxamide]
Second: Cc1ccc(C(=O)Nc2nc(-c3ccco3)c(C(=O)c3ccccn3)s2)cn1 [Compound 222, N-[4-(2-Furyl)-5-(pyridin-2-ylcarbonyl)thiazol-2-yl]-2-methylpyridine-5-carboxamide]
The melting point of the first is lower: 197 to 199 °C for the first, 210 to 215 °C for the second.

Compared with `Cc1cc(C(=O)Nc2nc(-c3ccco3)c(C(=O)c3ccccn3)s2)no1` [Compound 243, N-[4-(2-Furyl)-5-(pyridin-2-ylcarbonyl)thiazol-2-yl]-5-methylisoxazole-3-carboxamide], `O=C(Nc1nc(-c2ccco2)c(C(=O)C2CCOCC2)s1)c1ccccn1` [Compound 507, N-[4-(2-Furyl)-5-(tetrahydropyran-4-ylcarbonyl)thiazol-2-yl]pyridine-2-carboxamide] is lower in melting point: 209 to 213 °C for the first, 185 to 186 °C for the second.

First: O=C(CN1CCC(N2CCOCC2)CC1)Nc1nc(-c2ccco2)c(C(=O)C2CCOCC2)s1 [Compound 553, N-[4-(2-Furyl)-5-(tetrahydropyran-4-ylcarbonyl)thiazol-2-yl]-2-(4-morpholinopiperidino)acetamide]
Second: COC1CCN(CC(=O)Nc2nc(-c3ccco3)c(C(=O)C3CCOCC3)s2)CC1 [Compound 545, N-[4-(2-Furyl)-5-(tetrahydropyran-4-ylcarbonyl)thiazol-2-yl]-2-(4-methoxypiperidino)acetamide]
The melting point of the first is higher: 193 to 195 °C for the first, 109 to 111 °C for the second.

First: COc1cccc(C(=O)Nc2nc(-c3ccoc3)c(C(=O)C3CCOCC3)s2)c1 [Compound 619, N-[4-(3-Furyl)-5-(tetrahydropyran-4-ylcarbonyl)thiazol-2-yl]-3-methoxybenzamide]
Second: O=C(Nc1nc(-c2ccoc2)c(C(=O)C2CCOCC2)s1)c1ccc(Cl)nc1 [Compound 612, 2-Chloro-N-[4-(3-furyl)-5-(tetrahydropyran-4-ylcarbonyl)thiazol-2-yl]pyridine-5-carboxamide]
The melting point of the first is lower: 194 to 196 °C for the first, 237 to 239 °C for the second.

First: CN1CCN(c2ccc(C(=O)c3sc(NC(=O)c4ccncc4)nc3-c3ccco3)cn2)CC1 [Compound 325, N-(4-(2-Furyl)-5-[2-(4-methylpiperazin-1-yl)pyridin-5-ylcarbonyl]thiazol-2-yl)pyridine-4-carboxamide]
Second: O=C(Nc1nc(-c2ccco2)c(C(=O)C2CCOCC2)s1)c1ccc(C(F)(F)F)nc1 [Compound 505, N-[4-(2-Furyl)-5-(tetrahydropyran-4-ylcarbonyl)thiazol-2-yl]-2-(trifluoromethyl)pyridine-5-carboxamide]
The melting point of the first is lower: 195 to 205 °C for the first, 217 to 222 °C for the second.

First: CC(C)(C)C(=O)c1sc(NC(=O)C2CC2)nc1-c1ccco1 [Compound 401, N-[4-(2-Furyl)-5-pivaloylthiazol-2-yl]cyclopropanecarboxamide]
Second: CCCC(=O)c1sc(NC(=O)C2CC2)nc1-c1ccco1 [Compound 385, N-[5-Butyryl-4-(2-furyl)thiazol-2-yl]cyclopropanecarboxamide]
The melting point of the first is lower: 133 to 134 °C for the first, 170 to 172 °C for the second.

First: O=C(Nc1nc(-c2ccco2)c(C(=O)C2CCOCC2)s1)c1ccc2c(c1)OC(F)(F)O2 [Compound 498, 2,2-Difluoro-N-[4-(2-furyl)-5-(tetrahydropyran-4-ylcarbonyl)thiazol-2-yl]-1,3-benzodioxole-5-carboxamide]
Second: Cc1cccc(C(=O)Nc2nc(-c3ccco3)c(C(=O)C3CCOCC3)s2)c1 [Compound 459, N-[4-(2-Furyl)-5-(tetrahydropyran-4-ylcarbonyl)thiazol-2-yl]-3-methylbenzamide]
The melting point of the first is lower: 124 to 129 °C for the first, 197 to 201 °C for the second.

First: COc1ccccc1C(=O)Nc1nc(-c2ccco2)c(C(=O)C2CCOCC2)s1 [Compound 461, N-[4-(2-Furyl)-5-(tetrahydropyran-4-ylcarbonyl)thiazol-2-yl]-2-methoxybenzamide]
Second: O=C(Nc1nc(-c2ccco2)c(C(=O)C2CCOCC2)s1)c1cccs1 [Compound 517, N-[4-(2-Furyl)-5-(tetrahydropyran-4-ylcarbonyl)thiazol-2-yl]thiophene-2-carboxamide]
The melting point of the first is lower: 181 to 184 °C for the first, 231 to 232 °C for the second.

Work on `COCC(=O)Nc1nc(-c2ccco2)c(C(=O)C2CCOCC2)s1` [Compound 530, N-[4-(2-Furyl)-5-(tetrahydropyran-4-ylcarbonyl)thiazol-2-yl]-2-methoxyacetamide] yielded a melting point of 148 to 149 °C.

In the case of `CC(=O)c1sc(NC(=O)c2ccncc2)nc1-c1ccco1` [Compound 377, N-[5-Acetyl-4-(2-furyl)thiazol-2-yl]pyridine-4-carboxamide], the melting point is reported as 252 to 259 °C (dec.).
For `COc1cc(C(=O)Nc2nc(-c3ccco3)c(C(=O)c3ccccn3)s2)cc(OC)c1OC` [Compound 204, N-[4-(2-Furyl)-5-(pyridin-2-ylcarbonyl)thiazol-2-yl]-3,4,5-trimethoxybenzamide], the melting point was 172 to 180 °C (dec.).
In the case of `O=C(CN1CCC(N2CCCCC2)CC1)Nc1nc(-c2ccco2)c(C(=O)c2ccccn2)s1` [Compound 270, N-[4-(2-Furyl)-5-(pyridin-2-ylcarbonyl)thiazol-2-yl]-2-(4-piperidinopiperidino)acetamide], the melting point is reported as 214 to 220 °C (dec.).

— patent publication US7718808B2, “Thiazole derivatives” (Kyowa Hakko Kirin Co., Ltd., priority 2003, dated 2010)
